# Assay results taken from patent publication US20200172911A1, “USP30 INHIBITORS AND METHODS OF USE” (Genentech, Inc., priority 2012, published 2020).
# Read-outs that look alike come from different tables or passages of the source. Where a SMILES comes first, the peptide text is derived from it. Bridges are numbered along the chain shown (N, C = ends).
# Columns and labels:
# Drosophila [1] = assay: climbing assay with paraquat; type: in vivo; conditions: control flies, paraquat 10 mM 48 hours, L-DOPA 1 mM 48 hours
# Procedure: Climbing assays were performed using the following Drosophila lines: y, w; Actin5C-GAL4/CyO, y+ (Actin only); y, w; UAS-CG3016-RNAi/CyO, y+ (RNAi only); y, w; UAS-CG3016^RNAi, Actin5C-GAL4/CyO, y+ (USP30 knockdown).
# 1-day old adult males were fed a solution containing 5% sucrose only (in water) or 5% sucrose+10 mM paraquat (in water) on saturated Whatman paper. After 48 hours of treatment, flies were anesthetized using carbon dioxide and transferred in groups of ten to vials containing only 1% agarose for a 1-hour recovery period from the effects of carbon dioxide. The flies were then transferred into a new glass tube, gently tapped to the bottom and scored for their ability to climb. The number of flies climbing vertically >15 cm in 30 seconds was recorded.
# To examine the effect of suppressing USP30 in neurons that are relevant to PD, we used dopamine decarboxylase (Ddc)-GAL439 to drive dUSP30^RNAi specifically in aminergic neurons of the fly nervous system. As a model of mitochondrial damage and PD, we treated flies with paraquat, a mitochondrial toxin linked to PD (Castello et al., J. Biol. Chem., 282: 14186-14193 (2007); Cocheme et al., J. Biol. Chem., 283: 1786-1798 (2008); Tanner et al., Environmental Health Perspect., 119: 866-872 (2011)). […]
# [2] = biological target: T1, USP30_cd (USP30 catalytic domain with C77A mutation) (Homo sapiens, UniProt Q70CQ3, C77A); assay: spot phage ELISA against biotinylated USP30_cd; type: binding; conditions: USP30_cd on NeutrAvidin plate versus NeutrAvidin plate alone
# T1 construct: biotinylated USP30_cd (USP30 catalytic domain with C77A mutation); biotin (biotinylated)
# T1 sequence (Q70CQ3 68-502 C77A limits assumed): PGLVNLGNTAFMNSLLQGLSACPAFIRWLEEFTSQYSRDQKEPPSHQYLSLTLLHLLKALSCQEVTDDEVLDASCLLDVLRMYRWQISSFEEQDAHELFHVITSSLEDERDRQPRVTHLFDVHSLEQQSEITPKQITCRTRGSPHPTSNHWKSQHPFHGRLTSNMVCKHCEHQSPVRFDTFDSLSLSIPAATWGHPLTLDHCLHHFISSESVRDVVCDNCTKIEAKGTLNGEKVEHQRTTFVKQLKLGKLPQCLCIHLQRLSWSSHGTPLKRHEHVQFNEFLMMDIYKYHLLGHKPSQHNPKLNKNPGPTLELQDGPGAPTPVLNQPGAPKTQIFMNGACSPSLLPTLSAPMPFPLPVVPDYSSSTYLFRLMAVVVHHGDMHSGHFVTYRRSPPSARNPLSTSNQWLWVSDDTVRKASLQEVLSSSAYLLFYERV
# Text: The selection identified peptide USP30_3 and USP30_8, which had moderate spot ELISA signals (signal/noise ratios of ˜5). USP_30 and USP_8 have the sequences:
# Peptide USP30_3 was selected for affinity maturation. To improve the affinity, a soft randomized library was constructed using the USP30_3 sequence as the targeted parent, and panned against USP30_cd in solution as described previously (Stanger, et al., 2012, Nat. Chem. Bio., 7: 655-660). After four rounds of solution panning, 20 peptides were identified that bound to USP30 catalytic domain with stronger spot phage ELISA signal than the parent USP30_3, manifested by an improvement in the signal/noise ratio of about 3-6 fold.
# The sequences for certain affinity matured peptides are shown below the graph, along with the signal to noise ratio (“S/N”), which is the ratio of the spot phage ELISA signal (“signal”) detected against biotinylated USP30 cd captured on NeutrAvidin-coated 384 well Maxisorb plates versus the ELISA signal against the NeutrAvidin-coated plate alone. […] All of the affinity matured peptides shown had signal to noise ratios of greater than 10 except for USP30_3.27 and USP30_3.62.
# Drosophila [3] = type: in vivo; conditions: Actin-GAL4 and UAS-dUSP30^RNAi control groups, paraquat 10 mM, 96 hours
# Procedure: Ten adult 1-day old males per vial were fed a solution containing 5% sucrose only (in water) or 5% sucrose+10 mM paraquat (in water) on saturated Whatman paper. The number of live flies was counted at described intervals.
# To test whether USP30 knockdown has an effect on organism survival, we monitored the percentage of live flies over prolonged treatment with paraquat (10 mM, 96 hours). […] Only <15% of flies treated with paraquat were alive in Actin-GAL4 and UAS-dUSP30^RNAi control groups at 96 hours whereas ˜45% of flies were alive in the Actin-GAL4>UAS-dUSP30^RNAi (‘whole body dUSP30 knockdown’) group (FIG. 12G). We confirmed that the benefit of USP30 knockdown was not due to differences in exposure to paraquat since all three fly lines ingested roughly equal amounts of paraquat as measured by LC-MS/MS (average mass of paraquat per fly: UAS-dUSP30^RNAi: 3.2 μg, Actin-GAL4: 2.7 μg, Actin-GAL4>UAS-dUSP30R^RNAi: 2.7 μg). […] Remarkably, USP30 knockdown specifically in Ddc neurons was sufficient to provide significant survival benefit, albeit less than the whole body USP30 knockdown (FIG. 12H).
# [4] = type: in vivo, Drosophila; conditions: 10 mM, 48 hours
# Procedure: 1-day old adult males were fed a solution containing 5% sucrose only (in water) or 5% sucrose+10 mM paraquat (in water) on saturated Whatman paper. After 48 hours of treatment, 15 flies were collected per condition and homogenized in 100 μL water. Standard curve samples were generated by spiking appropriate amounts of paraquat to homogenates from untreated flies. Then the samples were vortex mixed, 200 μL of acetonitrile containing internal standard (Propranolol) was added. The samples were vortexed again and centrifuged at 10,000×g for 10 min. Supernatants were transferred to a new plate that contained 200 μL of water and analyzed by LC-MS/MS to quantify for concentrations of paraquat. The LC-MS/MS consisted of an Agilent 1100 series HPLC system (Santa Clara, Calif.) and an HTS PAL autosampler from CTC Analytics (Carrboro, N.C.) coupled with a 4000 Q TRAP® MS and TurbolonSpray® ion source from Applied Biosystems (Foster City, Calif.). HPLC separation was performed on a Waters Atlantis dC18 column (3 μm 100×2.1 mm) with a Krud Katcher guard column from Phenomenex. Quantitation was carried out using the multiple reaction monitoring (MRM) with transition 185.1→165.1 for paraquat and 260.2→183.1 for propranolol. The lower and upper limit of the assay is 10 μM and 1000 μM, respectively. The quatitation of the assay employed a calibration curve which was constructed through plotting the analyte/IS peak area ration versus the nominal concentration of paraquat with a weighed 1/x^2 linear regression.
# To test whether USP30 knockdown has an effect on organism survival, we monitored the percentage of live flies over prolonged treatment with paraquat (10 mM, 96 hours). […] We confirmed that the benefit of USP30 knockdown was not due to differences in exposure to paraquat since all three fly lines ingested roughly equal amounts of paraquat as measured by LC-MS/MS (average mass of paraquat per fly: UAS-dUSP30^RNAi: 3.2 μg, Actin-GAL4: 2.7 μg, Actin-GAL4>UAS-dUSP30R^RNAi: 2.7 μg). […]
# Drosophila [5] = assay: dopamine levels in fly heads by ELISA; type: in vivo; conditions: control fly lines, paraquat 10 mM, 48 hours
# Text: To examine the effect of suppressing USP30 in neurons that are relevant to PD, we used dopamine decarboxylase (Ddc)-GAL439 to drive dUSP30^RNAi specifically in aminergic neurons of the fly nervous system. As a model of mitochondrial damage and PD, we treated flies with paraquat, a mitochondrial toxin linked to PD (Castello et al., J. Biol. Chem., 282: 14186-14193 (2007); Cocheme et al., J. Biol. Chem., 283: 1786-1798 (2008); Tanner et al., Environmental Health Perspect., 119: 866-872 (2011)). […] This climbing defect was fully rescued by additional treatment with L-DOPA (FIG. 17D), showing that this behavioral deficit is likely due to depletion of dopamine. Consistently, in control fly lines (Ddc-GAL4 or UAS-dUSP30^RNAi transgenics alone), paraquat treatment (10 mM, 48 hours) caused a 30-60% reduction in dopamine levels in fly heads without altering serotonin neurotransmitter levels (indicating specific toxicity of paraquat on the dopaminergic system in this model—FIG. 12F and FIG. 17E).
# hippocampal neurons = assay: mito-roGFP relative oxidation index imaging; type: cell-based, rat; conditions: 0 = after DTT, 1 = after aldrithiol; luciferase shRNA control ~0.6
# Text: Whether USP30 knockdown provides functional benefit to mitochondria and cells was examined next. ROS—which largely derive from mitochondria—is associated with neurodegenerative disorders and mitochondria dysfunction may contribute to increased oxidative stress in PD (Lee et al., Biochem. J, 441: 523-540 (2012)). To measure oxidative stress in mitochondria, mitochondria matrix-targeted ro-GFP (mito-roGFP), a redox-sensitive fluorescent protein that allows quantitative ratiometric imaging of mitochondrial redox potential was used (Dooley et al., J. Biol. Chem. 279: 22284-22293 (2004)).
# [6] = tested on: cultured hippocampal neurons; assay: mt-Keima mitophagy index imaging in hippocampal neurons; type: cell-based, rat; conditions: relative to luciferase shRNA
# Procedure: Dissociated hippocampal neuron cultures were prepared as described (Seeburg et al., Neuron 58: 571-583 (2008)) and transfected using Lipofectamine LTX PLUS at DIV 8-10. Constructs were expressed for 1-3 days for overexpression experiments and 3-4 days for knockdown experiments. mt-Keima-transfected neurons were imaged with a Leica TCS SP5 Laser Scanning Confocal microscope with a 40×/1.25 oil objective (0.07 μm/pixel resolution, […] confocal z-step size). Cells were kept in a humidified chamber maintained at 37° C./5% CO2 during imaging. Two images were acquired using a hybrid detector in sequential mode with 458 nm (neutral pH signal) and 543 nm (acidic pH signal) laser excitation, and emission fluorescence collected between 630-710 nm. All image quantification was performed by custom-written macros in ImageJ. For mt-Keima quantification, cell bodies were manually outlined and total area of high ratio (543 nm/458 nm) lysosomal signal was divided by the total area of somatic mitochondrial signal (mitophagy index).
# To measure mitophagy in neurons, mt-Keima, a ratiometric pH-sensitive fluorescent protein that is targeted into the mitochondrial matrix, was monitored. A low ratio mt-Keima-derived fluorescence (543 nm/458 nm) reports neutral environment whereas a high ratio fluorescence reports acidic pH (Katayama et al., Chemistry & Biology 18: 1042-1094 (2011)). […]
# USP30 = assay: immunoblot of endogenous USP30 in neuronal cultures; type: cell-based, rat
# Text: Adeno-associated virus type2 (AAV2) particles expressing Parkin, PINK1 and USP30 shRNAs were produced by Vector Biolabs, Inc. from pAAV-BASIC-CAGeGFP-WPRE vector containing the HI promoter and shRNA expression cassette of the pSuper vectors.
# To test the function of endogenous USP30, USP30 was knocked down using shRNAs. In heterologous cells, rat USP30 shRNA plasmid specifically eliminated the expression of transfected rat USP30 cDNA (FIG. 5B). The same rat USP30 shRNA led to a ˜85% reduction in endogenous USP30 in neuronal cultures (FIG. 5C). In neurons, USP30 knockdown increased the lysosomal delivery of mt-Keima (˜60% increase in mitophagy index), relative to negative control luciferase shRNA (FIG. 5D, F).
compound,measurement,setting,value
N[C@@H](Cc1ccc(O)c(O)c1)C(=O)O [L-DOPA],rescue of paraquat-induced climbing defect,Drosophila [1],fully rescued
"CC(C)C[C@H](NC(=O)[C@@H]1CCCN1)C(=O)N[C@@H](Cc1ccc(O)cc1)C(=O)N[C@H]1CSSC[C@@H](C(=O)N[C@@H](Cc2ccccc2)C(=O)N[C@@H](Cc2ccc(O)cc2)C(=O)O)NC(=O)[C@H](CC(C)C)NC(=O)[C@H](Cc2ccc(O)cc2)NC(=O)CNC(=O)[C@H](Cc2ccc(O)cc2)NC(=O)[C@H]([C@@H](C)O)NC(=O)[C@H](CC(C)C)NC(=O)[C@H](CC(=O)O)NC(=O)[C@H](Cc2ccc(O)cc2)NC(=O)[C@H](Cc2ccccc2)NC1=O [USP30_3, PLYCFYDLTYGYLCFY] (H-PLYCFYDLTYGYLCFY-OH; disulfide 4-14; N-terminus and C-terminus assumed)",spot ELISA signal/noise ratio,[2],~5
"C[n+]1ccc(-c2cc[n+](C)cc2)cc1 [paraquat, paraquat dichloride]",flies alive,Drosophila [3],< 15%
same,average mass of paraquat per fly,[4]; Actin-GAL4>UAS-dUSP30^RNAi flies,2.7 µg
same,average mass of paraquat per fly,[4]; Actin-GAL4 flies,2.7 µg
same,average mass of paraquat per fly,[4]; UAS-dUSP30^RNAi flies,3.2 µg
same,reduction in dopamine levels in fly heads,Drosophila [5],30-60%
"CCAGAGCCCTGTTCGGTTT ((CCAGAGCCCTGTTCGGTTT; as printed in the source, key not given here) [rat USP30 shRNA]",relative oxidation index,hippocampal neurons,~0.4
same,increase in mitophagy index,[6],~60%
same,reduction in endogenous USP30,USP30,~85%
